Reference: the NIST ThermoML archive (doi:10.1021/acs.jced.9b00396)

Settings: Liquid; for speed of sound: Frequency=3 MHz, Single path-length method; for mass density: Vibrating tube method

OCc1ccccc1 [benzenemethanol]
Settings | mass density [kg/m3] | speed of sound [m/s]
293.15 K, 100 kPa | 1045.6 | 1541
298.15 K, 100 kPa | 1041.8 | 1526
298.15 K, 500 kPa | 1042 | –
298.15 K, 1000 kPa | 1042 | –
298.15 K, 2500 kPa | 1043 | –
298.15 K, 5000 kPa | 1044 | –
298.15 K, 7500 kPa | 1045 | –
298.15 K, 10000 kPa | 1046 | –
298.15 K, 12500 kPa | 1047 | –
298.15 K, 15000 kPa | 1049 | –
298.15 K, 17500 kPa | 1050 | –
298.15 K, 20000 kPa | 1051 | –
298.15 K, 22500 kPa | 1052 | –
298.15 K, 25000 kPa | 1053 | –
298.15 K, 27500 kPa | 1055 | –
298.15 K, 30000 kPa | 1056 | –
298.15 K, 32500 kPa | 1057 | –
298.15 K, 35000 kPa | 1058 | –
313.15 K, 100 kPa | 1030 | 1479
318.15 K, 500 kPa | 1026 | –
318.15 K, 1000 kPa | 1026 | –
318.15 K, 2500 kPa | 1027 | –
318.15 K, 5000 kPa | 1028 | –
318.15 K, 7500 kPa | 1030 | –
318.15 K, 10000 kPa | 1031 | –
318.15 K, 12500 kPa | 1032 | –
318.15 K, 15000 kPa | 1034 | –
318.15 K, 17500 kPa | 1035 | –
318.15 K, 20000 kPa | 1036 | –
318.15 K, 22500 kPa | 1037 | –
318.15 K, 25000 kPa | 1039 | –
318.15 K, 27500 kPa | 1040 | –
318.15 K, 30000 kPa | 1041 | –
318.15 K, 32500 kPa | 1042 | –
318.15 K, 35000 kPa | 1043 | –
333.15 K, 100 kPa | 1011.3 | 1417
338.15 K, 500 kPa | 1010 | –
338.15 K, 1000 kPa | 1010 | –
338.15 K, 2500 kPa | 1011 | –
338.15 K, 5000 kPa | 1013 | –
338.15 K, 7500 kPa | 1014 | –
338.15 K, 10000 kPa | 1016 | –
338.15 K, 12500 kPa | 1017 | –
338.15 K, 15000 kPa | 1018 | –
338.15 K, 17500 kPa | 1020 | –
338.15 K, 20000 kPa | 1021 | –
338.15 K, 22500 kPa | 1023 | –
338.15 K, 25000 kPa | 1024 | –
338.15 K, 27500 kPa | 1025 | –
338.15 K, 30000 kPa | 1026 | –
338.15 K, 32500 kPa | 1028 | –
338.15 K, 35000 kPa | 1029 | –
358.15 K, 500 kPa | 994 | –
358.15 K, 1000 kPa | 994 | –
358.15 K, 2500 kPa | 995 | –
358.15 K, 5000 kPa | 997 | –
358.15 K, 7500 kPa | 998 | –
358.15 K, 10000 kPa | 1000 | –
358.15 K, 12500 kPa | 1001 | –
358.15 K, 15000 kPa | 1003 | –
358.15 K, 17500 kPa | 1005 | –
358.15 K, 20000 kPa | 1006 | –
358.15 K, 22500 kPa | 1007 | –
358.15 K, 25000 kPa | 1009 | –
358.15 K, 27500 kPa | 1010 | –
358.15 K, 30000 kPa | 1012 | –
358.15 K, 32500 kPa | 1013 | –
358.15 K, 35000 kPa | 1014 | –
378.15 K, 500 kPa | 977 | –
378.15 K, 1000 kPa | 978 | –
378.15 K, 2500 kPa | 979 | –
378.15 K, 5000 kPa | 980 | –
378.15 K, 7500 kPa | 982 | –
378.15 K, 10000 kPa | 984 | –
378.15 K, 12500 kPa | 985 | –
378.15 K, 15000 kPa | 987 | –
378.15 K, 17500 kPa | 989 | –
378.15 K, 20000 kPa | 990 | –
378.15 K, 22500 kPa | 992 | –
378.15 K, 25000 kPa | 994 | –
378.15 K, 27500 kPa | 995 | –
378.15 K, 30000 kPa | 997 | –
378.15 K, 32500 kPa | 998 | –
378.15 K, 35000 kPa | 1000 | –
398.15 K, 500 kPa | 960 | –
398.15 K, 1000 kPa | 960 | –
398.15 K, 2500 kPa | 962 | –
398.15 K, 5000 kPa | 963 | –
398.15 K, 7500 kPa | 965 | –
398.15 K, 10000 kPa | 967 | –
398.15 K, 12500 kPa | 969 | –
398.15 K, 15000 kPa | 971 | –
398.15 K, 17500 kPa | 973 | –
398.15 K, 20000 kPa | 974 | –
398.15 K, 22500 kPa | 976 | –
398.15 K, 25000 kPa | 978 | –
398.15 K, 27500 kPa | 979 | –
398.15 K, 30000 kPa | 981 | –
398.15 K, 32500 kPa | 983 | –
398.15 K, 35000 kPa | 985 | –
418.15 K, 500 kPa | 942 | –
418.15 K, 1000 kPa | 943 | –
418.15 K, 2500 kPa | 944 | –
418.15 K, 5000 kPa | 946 | –
418.15 K, 7500 kPa | 948 | –
418.15 K, 10000 kPa | 950 | –
418.15 K, 12500 kPa | 952 | –
418.15 K, 15000 kPa | 954 | –
418.15 K, 17500 kPa | 956 | –
418.15 K, 20000 kPa | 958 | –
418.15 K, 22500 kPa | 960 | –
418.15 K, 25000 kPa | 962 | –
418.15 K, 27500 kPa | 964 | –
418.15 K, 30000 kPa | 965 | –
418.15 K, 32500 kPa | 967 | –
418.15 K, 35000 kPa | 969 | –
438.15 K, 500 kPa | 924 | –
438.15 K, 1000 kPa | 924 | –
438.15 K, 2500 kPa | 926 | –
438.15 K, 5000 kPa | 928 | –
438.15 K, 7500 kPa | 930 | –
438.15 K, 10000 kPa | 933 | –
438.15 K, 12500 kPa | 935 | –
438.15 K, 15000 kPa | 937 | –
438.15 K, 17500 kPa | 939 | –
438.15 K, 20000 kPa | 941 | –
438.15 K, 22500 kPa | 944 | –
438.15 K, 25000 kPa | 946 | –
438.15 K, 27500 kPa | 948 | –
438.15 K, 30000 kPa | 949 | –
438.15 K, 32500 kPa | 952 | –
438.15 K, 35000 kPa | 953 | –
458.15 K, 500 kPa | 904 | –
458.15 K, 1000 kPa | 905 | –
458.15 K, 2500 kPa | 907 | –
458.15 K, 5000 kPa | 909 | –
458.15 K, 7500 kPa | 912 | –
458.15 K, 10000 kPa | 915 | –
458.15 K, 12500 kPa | 917 | –
458.15 K, 15000 kPa | 920 | –
458.15 K, 17500 kPa | 922 | –
458.15 K, 20000 kPa | 924 | –
458.15 K, 22500 kPa | 927 | –
458.15 K, 25000 kPa | 929 | –
458.15 K, 27500 kPa | 931 | –
458.15 K, 30000 kPa | 933 | –
458.15 K, 32500 kPa | 935 | –
458.15 K, 35000 kPa | 937 | –
473.15 K, 500 kPa | 889 | –
473.15 K, 1000 kPa | 891 | –
473.15 K, 2500 kPa | 892 | –
473.15 K, 5000 kPa | 895 | –
473.15 K, 7500 kPa | 898 | –
473.15 K, 10000 kPa | 901 | –
473.15 K, 12500 kPa | 903 | –
473.15 K, 15000 kPa | 906 | –
473.15 K, 17500 kPa | 909 | –
473.15 K, 20000 kPa | 911 | –
473.15 K, 22500 kPa | 914 | –
473.15 K, 25000 kPa | 916 | –
473.15 K, 27500 kPa | 919 | –
473.15 K, 30000 kPa | 921 | –
473.15 K, 32500 kPa | 923 | –
473.15 K, 35000 kPa | 925 | –
